According to US8716242B2, “β-hairpin peptidomimetics” (priority 2009, dated 2014):
Bridge positions count the residues as written; N and C are the ends. Square brackets hold non-standard residues; d marks the D form. Peptide text beside a SMILES is read from it. * marks the point of attachment. Stearoyl = CCCCCCCCCCCCCCCCCC(=O)*; Myristoyl = CCCCCCCCCCCCCC(=O)*; Decanoyl = CCCCCCCCCC(=O)*; Octanoyl = CCCCCCCC(=O)*; Dab = NCC[C@H](N)C(=O)O

What was measured:
[1] = Plasma stability in human plasma; type: in vitro ADME
Outline: (§1)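 Peptides (1 mM DMSO/H2O stock) were spiked into human or mouse plasma in triplicate and incubated at 37 °C, sampling from 0 to 1440 min. Samples were quenched in formic acid/acetonitrile and analysed by LC/MS MRM. Remaining percent of t=0 was calculated and T1/2 derived by trend fitting.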

[2] = Cytotoxicity, MTT reduction assay, HELA cells; type: cell-based; conditions: human, HELA cells (Acc57), 12.5-50 μM
Outline: (§2)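 HELA (4000/well) and COS-7 (3400/well) cells were grown 24 h, then exposed 48 h at 37° C to peptides at 12.5, 25 and 50 μM in triplicate. MTT reduction read at 595 nm; growth % relative to time-zero, and GI50 interpolated by trend line.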

human CXCR4 = target: T1, human CXCR4 (Homo sapiens, UniProt P61073); test: Ca2+-assay: CXCR4-antagonizing activity (SDF-1 induced calcium mobilization); type: cell-based; conditions: mouse pre-B cell line 300-19 transfected with human CXCR4; SDF-1 induced Ca2+ mobilization; read-out: IC50% [nM] ± SD, CXCR4 receptor
T1 construct: expressed in transfected cells; host or cells: mouse pre-B cell line 300-19
Description: 2.3. Ca^2+-Assay: CXCR4-Antagonizing Activity of the Peptides
Increases in intracellular calcium were monitored using a Flexstation 384 (Molecular Devices, Sunnyvale, Calif.) to assay the peptides for CXCR4 antagonism in a mouse pre-B cell line 300-19 stably transfected with human CXCR4 (E. Oberlin, A. Amara, F. Bachelerie, C. Bessia, J.-L. Virelizier, F. Arenzana-Seisdedos, O, Schwartz, J.-M. Heard, I. Clark-Lewis, D. F. Legler, M. Loetscher, M. Baggiolini, B. Moser, Nature 1996, 382, 833-835; M. Loetscher, T. Geiser, T. O'Reilly, R. Zwalen, M. Baggiolini, B. Moser, J. Biol. Chem. 1994, 269, 232-237; M. D'Apuuo, A. Rolink, M. Loetscher, J. A. Hoxie, I. Clark-Lewis, F. Melchors, M. Baggiolini, B. Moser, Eur. J. Immunol. 1997, 27, 1788-1793). The cells were batch loaded with the Calcium 4 Assay kit (Molecular Devices) in assay buffer (Hanks Balanced salt solution [HBSS], 20 mM HEPES, pH 7.4, 0.1% BSA) for 1 h at room temperature and labeled cells were dispensed into black well assays plates (Costar No. 3603). Calcium mobilization induced by stromal-derived factor-1 (SDF-1) was measured in the Flexstation 384 (excitation: 485 nm; emission: 525 nm) for 90 seconds. Antagonist activity of peptides was determined by spiking the cells with compounds prior to SDF-1 addition. Dose response curves (compound concentration versus % maximum response for SDF-1) were determined for each antagonist and IC50 values were calculated by fitting the data to a four parameter logistic equation using SoftmaxPro 4.8 (Molecular Devices).

[3] = system: human red blood cells (hRBC); test: Hemolysis of human red blood cells; type: cell-based; conditions: 20% hRBC, 1 h, 37° C.
Method: The peptides were tested for their hemolytic activity against human red blood cells (hRBC). Fresh hRBC were washed three times with phosphate buffered saline (PBS) and centrifuged for 10 min at 2000×g. Compounds (100 μM) were incubated with 20% hRBC (v/v) for 1 h at 37° C. and shaking at 300 rpm. The final erythrocyte concentration was approximately 0.9×10^9 cells/mL. A value of 0% and 100% cell lyses, respectively, was determined by incubation of hRBC in the presence of PBS containing 0.001% acetic acid and 2.5% Triton X-100 in H2O, respectively. The samples were centrifuged, the supernatants were 8-fold diluted in PBS buffer and the optical densities (OD) were measured at 540 nm. The 100% lyses value (OD540H2O) gave an OD540 of approximately 0.5-1.0.
Percent hemolysis was calculated as follows: (OD540peptide/OD540H2O)×100%. 2.6. Plasma Stability

[4] = Plasma stability in mouse plasma; type: in vitro ADME; conditions: for half-life at 10 μM / mouse pl. T1/2: up to 1440 min; for half-life at 10 μM: read-out: mouse pl. T1/2
Outline: as §1

[5] = Cytotoxicity, MTT reduction assay, COS-7 cells; type: cell-based; conditions: African green monkey, COS-7 cells (CRL-1651), 12.5-50 μM
Outline: as §2

[6] = human plasma, 37° C., 1440 min, read-out: human pl. cpd left at 1440 min
[7] = human plasma, 37° C., up to 1440 min
[8] = mouse plasma, 37° C., 1440 min, read-out: mouse pl. cpd left at 1440 min

T1 sequence (P61073 whole entry): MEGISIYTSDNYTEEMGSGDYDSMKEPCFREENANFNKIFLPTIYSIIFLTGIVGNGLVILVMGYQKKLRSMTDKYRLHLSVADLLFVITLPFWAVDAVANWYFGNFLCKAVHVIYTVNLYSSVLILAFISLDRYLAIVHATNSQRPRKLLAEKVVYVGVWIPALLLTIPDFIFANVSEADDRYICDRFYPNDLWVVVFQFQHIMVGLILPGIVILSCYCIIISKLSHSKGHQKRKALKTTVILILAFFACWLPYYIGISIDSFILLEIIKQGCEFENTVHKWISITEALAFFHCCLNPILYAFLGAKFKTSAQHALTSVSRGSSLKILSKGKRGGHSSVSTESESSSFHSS

CCCCCCCC(=O)NCCCC[C@@H]1NC(=O)[C@H](Cc2ccc(O)cc2)NC(=O)[C@@H]2CSSC[C@H](NC(=O)[C@H](Cc3ccc(O)cc3)NC(=O)[C@H](Cc3c[nH]cn3)NC(=O)[C@H](Cc3ccc(O)cc3)NC(=O)[C@@H]3CCCN3C(=O)[C@H]3CCCN3C(=O)[C@H](CCCCN)NC1=O)C(=O)N[C@@H](CO)C(=O)N[C@@H](C)C(=O)N1CCC[C@@H]1C(=O)N[C@@H](CCN)C(=O)N[C@@H](CCCNC(=N)N)C(=O)N[C@@H](Cc1ccc(O)cc1)C(=O)N2 [Ex. 12] (cyclo(YHYCSA[dP][Dab]RYCYK(Octanoyl)K[dP]P); disulfide 4-11)
remaining at 24 h, 10 μM [1, 6]: 88%
human pl. T1/2 [1, 7]: 24 h
GI50 at 48 h [2]: > 50 µM
IC50 (human CXCR4): 1.8 ± 1 nM
Hemolysis at 100 μM [3]: 0.2%
remaining at 24 h, 10 μM [4, 8]: 46%
half-life at 10 μM ([4]; mouse plasma, 37° C.): 7 h
GI50 at 48 h [5]: > 50 µM

CCCCCCCC(=O)NCCCC[C@@H]1NC(=O)[C@H](Cc2ccc(O)cc2)NC(=O)[C@@H]2CSSC[C@H](NC(=O)[C@H](Cc3ccc(O)cc3)NC(=O)[C@H](Cc3c[nH]cn3)NC(=O)[C@H](Cc3ccc(O)cc3)NC(=O)[C@@H]3CCCN3C(=O)[C@@H](Cc3ccc(O)cc3)NC(=O)[C@H](CCCCN)NC1=O)C(=O)N[C@@H](CO)C(=O)N[C@@H](C)C(=O)N1CCC[C@@H]1C(=O)N[C@@H](CCN)C(=O)N[C@@H](CCCNC(=N)N)C(=O)N[C@@H](Cc1ccc(O)cc1)C(=O)N2 [Ex. 13] (cyclo(A[dP][Dab]RYCYK(Octanoyl)K[dY]PYHYCS); disulfide 6-15)
remaining at 24 h, 10 μM [1, 6]: 100%
human pl. T1/2 [1, 7]: 24 h
GI50 at 48 h [2]: > 50 µM
IC50 (human CXCR4): 6.3 ± 2.7 nM
Hemolysis at 100 μM [3]: 1.2%
remaining at 24 h, 10 μM [4, 8]: 72%
half-life at 10 μM ([4]; mouse plasma, 37° C.): 22.4 h
GI50 at 48 h [5]: > 50 µM

CCCCCCCCCC(=O)NCCCC[C@@H]1NC(=O)[C@H](Cc2ccc(O)cc2)NC(=O)[C@@H]2CSSC[C@H](NC(=O)[C@H]([C@@H](C)O)NC(=O)[C@H](Cc3c[nH]cn3)NC(=O)[C@H](Cc3ccc(O)cc3)NC(=O)[C@@H]3CCCN3C(=O)[C@H]3CCCN3C(=O)[C@H](CCCCN)NC1=O)C(=O)N[C@@H](CCCNC(=N)N)C(=O)N[C@@H](C)C(=O)N[C@H](Cc1ccc(O)cc1)C(=O)N[C@@H](CCN)C(=O)N[C@@H](CCCNC(=N)N)C(=O)N[C@@H](Cc1ccc(O)cc1)C(=O)N2 [Ex. 14] (cyclo(YHTCRA[dY][Dab]RYCYK(Decanoyl)K[dP]P); disulfide 4-11)
remaining at 24 h, 10 μM [1, 6]: 91%
human pl. T1/2 [1, 7]: 24 h
GI50 at 48 h [2]: > 50 µM
IC50 (human CXCR4): 40.8 ± 12 nM
Hemolysis at 100 μM [3]: 0.6%
remaining at 24 h, 10 μM [4, 8]: 23%
half-life at 10 μM ([4]; mouse plasma, 37° C.): 9.42 h
GI50 at 48 h [5]: > 50 µM

CCCCCCCCCC(=O)NCCCC[C@@H]1NC(=O)[C@H](Cc2ccc(O)cc2)NC(=O)[C@@H]2CSSC[C@H](NC(=O)[C@H]([C@@H](C)O)NC(=O)[C@H](Cc3c[nH]cn3)NC(=O)[C@H](Cc3ccc(O)cc3)NC(=O)[C@@H]3CCCN3C(=O)[C@@H](Cc3ccc(O)cc3)NC(=O)[C@H](CCCCN)NC1=O)C(=O)N[C@@H](CCCNC(=N)N)C(=O)N[C@@H](C)C(=O)N1CCC[C@@H]1C(=O)N[C@@H](CCN)C(=O)N[C@@H](CCCNC(=N)N)C(=O)N[C@@H](Cc1ccc(O)cc1)C(=O)N2 [Ex. 16] (cyclo(YHTCRA[dP][Dab]RYCYK(Decanoyl)K[dY]P); disulfide 4-11)
half-life at 10 μM ([1]; human plasma, 37° C., up to 1440 min, read-out: human pl. T1/2): 19.9 h
remaining at 24 h, 10 μM ([1]; human, plasma): 48%
GI50 at 48 h [2]: > 50 µM
IC50 (human CXCR4): 18.2 ± 11 nM
Hemolysis at 100 μM [3]: 0.5%
half-life at 10 μM ([4]; mouse plasma, 37° C.): 10.3 h
remaining at 24 h, 10 μM ([4]; mouse, plasma): 35%
GI50 at 48 h [5]: > 50 µM

CCCCCCCCCCCCCC(=O)NCCCC[C@@H]1NC(=O)[C@H](Cc2ccc(O)cc2)NC(=O)[C@@H]2CSSC[C@H](NC(=O)[C@H](Cc3ccc(O)cc3)NC(=O)[C@H](Cc3c[nH]cn3)NC(=O)[C@H](Cc3ccc(O)cc3)NC(=O)[C@@H]3CCCN3C(=O)[C@H]3CCCN3C(=O)[C@H](CCCCN)NC1=O)C(=O)N[C@@H](CO)C(=O)N[C@@H](C)C(=O)N1CCC[C@@H]1C(=O)N[C@@H](CCN)C(=O)N[C@@H](CCCNC(=N)N)C(=O)N[C@@H](Cc1ccc(O)cc1)C(=O)N2 [Ex. 18] (cyclo(YHYCSA[dP][Dab]RYCYK(Myristoyl)K[dP]P); disulfide 4-11)
remaining at 24 h, 10 μM [1, 6]: 71%
human pl. T1/2 [1, 7]: 24 h
GI50 at 48 h [2]: > 25 µM
IC50 (human CXCR4): 15.7 ± 3.9 nM
Hemolysis at 100 μM [3]: 9.2%
remaining at 24 h, 10 μM [4, 8]: 78%
mouse pl. T1/2 ([4]; mouse plasma, 37° C.): 24 h
GI50 at 48 h [5]: > 50 µM

CCCCCCCCCCCCCC(=O)NCCCC[C@@H]1NC(=O)[C@H](Cc2ccc(O)cc2)NC(=O)[C@@H]2CSSC[C@H](NC(=O)[C@H](C)NC(=O)[C@H](Cc3c[nH]cn3)NC(=O)[C@H](Cc3ccc(O)cc3)NC(=O)[C@@H]3CCCN3C(=O)[C@H]3CCCN3C(=O)[C@H](CCCCN)NC1=O)C(=O)N[C@@H](CCCNC(=N)N)C(=O)N[C@@H](C)C(=O)N1CCC[C@@H]1C(=O)N[C@@H](CCN)C(=O)N[C@@H](CCCNC(=N)N)C(=O)N[C@@H](Cc1ccc(O)cc1)C(=O)N2 [Ex. 19] (cyclo(YHACRA[dP][Dab]RYCYK(Myristoyl)K[dP]P); disulfide 4-11)
remaining at 24 h, 10 μM [1, 6]: 99%
human pl. T1/2 [1, 7]: 24 h
GI50 at 48 h [2]: > 32 µM
IC50 (human CXCR4): 9.1 ± 4.2 nM
Hemolysis at 100 μM [3]: 1.2%
remaining at 24 h, 10 μM [4, 8]: 76%
mouse pl. T1/2 ([4]; mouse plasma, 37° C.): 24 h
GI50 at 48 h [5]: > 50 µM

CCCCCCCCCCCCCCCCCC(=O)NCCCC[C@@H]1NC(=O)[C@H](Cc2ccc(O)cc2)NC(=O)[C@@H]2CSSC[C@H](NC(=O)[C@H](Cc3ccc(O)cc3)NC(=O)[C@H](Cc3c[nH]cn3)NC(=O)[C@H](Cc3ccc(O)cc3)NC(=O)[C@@H]3CCCN3C(=O)[C@H]3CCCN3C(=O)[C@H](CCCCN)NC1=O)C(=O)N[C@@H](CO)C(=O)N[C@@H](C)C(=O)N1CCC[C@@H]1C(=O)N[C@@H](CCN)C(=O)N[C@@H](CCCNC(=N)N)C(=O)N[C@@H](Cc1ccc(O)cc1)C(=O)N2 [Ex. 22] (cyclo(YHYCSA[dP][Dab]RYCYK(Stearoyl)K[dP]P); disulfide 4-11)
remaining at 24 h, 10 μM [1, 6]: 72%
human pl. T1/2 [1, 7]: 24 h
GI50 at 48 h [2]: > 35 µM
IC50 (human CXCR4): 7.3 ± 3 nM
Hemolysis at 100 μM [3]: 9.6%
remaining at 24 h, 10 μM [4, 8]: 82%
mouse pl. T1/2 ([4]; mouse plasma, 37° C.): 24 h
GI50 at 48 h [5]: > 50 µM
